Laboratory results published in US7834044B2, “Substituted-2-imidazoles” (Hoffman-LaRoche Inc., priority 2006, dated 2010).

Biological target: T1, TAAR1 (Mus musculus, UniProt Q923Y8)
T1 construct: expressed in transfected cells; host or cells: HEK293 (ATCC # CRL-1573), stably transfected with pIRESneo2 expression plasmid; membranes prepared
Test: TAAR1 radioligand binding assay on membranes of stably transfected HEK293 cells
Conditions: not given
Protocol: The ability of the compounds of the present invention to bind to TAAR 1 was investigated in accordance with the test given hereinafter.
The Expand High Fidelity PCR System (Roche Diagnostics) was used with 1.5 mM Mg^2+ and purified PCR products were cloned into pCR2.1-TOPO cloning vector (Invitrogen) following the instructions of the manufacturer. PCR products were subcloned into the pIRESneo2 vector (BD Clontech, Palo Alto, Calif.), and expression vectors were sequence verified before introduction in cell lines.
For the generation of stably transfected cell lines HEK293 cells were transfected with the pIRESneo2 expression plasmids containing the TAAR coding sequences (described above) with Lipofectamine 2000 (Invitrogen) according to the instructions of the manufacturer, and 24 hours post transfection the culture medium was supplemented with 1 mg/ml G418 (Sigma, Buchs, Switzerland). After a culture period of about 10 days, clones were isolated, expanded and tested for responsiveness to trace amines (all compounds purchased from Sigma) with the cAMP Biotrak Enzyme immunoassay (EIA) System (Amersham) following the non-acetylation EIA procedure provided by the manufacturer.
Cells at confluence were rinsed with ice-cold phosphate buffered saline without Ca^2+ and Mg^2+ containing 10 mM EDTA and pelleted by centrifugation at 1000 rpm for 5 min at 4° C. The pellet was then washed twice with ice-cold phosphate buffered saline and cell pellet was frozen immediately by immersion in liquid nitrogen and stored until use at −80° C. The cell pellet was then suspended in 20 ml HEPES-NaOH (20 mM), pH 7.4 containing 10 mM EDTA, and homogenized with a Polytron (PT 3000, Kinematica) at 10,000 rpm for 10 seconds. The homogenate was centrifuged at 48,000×g for 30 minutes at 4° C. and the pellet resuspended in 20 ml HEPES-NaOH (20 mM), pH 7.4 containing 0.1 mM EDTA (buffer A), and homogenized with a Polytron at 10,000 rpm for 10 seconds. The homogenate was then centrifuged at 48,000×g for 30 minutes at 4° C. and the pellet resuspended in 20 ml buffer A, and homogenized with a Polytron at 10,000 rpm for 10 seconds. Protein concentration was determined by the method of Pierce (Rockford, Ill.). The homogenate was then centrifuged at 48,000×g for 10 minutes at 4° C., resuspended in HEPES-NaOH (20 mM), pH 7.0 including MgCl2 (10 mM) and CaCl2 ([…]) (buffer B) at 200 μg protein per ml and homogenized with a Polytron at 10,000 rpm for 10 seconds.
Binding assay was performed at 4° C. in a final volume of 1 ml, and with an incubation time of 30 minutes. […] Non-specific binding was defined as the amount of [^3H]-rac-2-(1,2,3,4-tetrahydro-1-naphthyl)-2-imidazoline bound in the presence of the appropriate unlabelled ligand (10 μM). Competing ligands were tested in a wide range of concentrations (10 pM-30 μM). […] Each experiment was performed in duplicate. All incubations were terminated by rapid filtration through UniFilter-96 plates (Packard Instrument Company) and glass filter GF/C, pre-soaked for at least 2 h in polyethylenimine 0.3%, and using a Filtermate 96 Cell Harvester (Packard Instrument Company). The tubes and filters were then washed 3 times with 1 ml aliquots of cold buffer B. Filters were not dried and soaked in Ultima gold (45 μl/well, Packard Instrument Company) and bound radioactivity was counted by a TopCount Microplate Scintillation Counter (Packard Instrument Company).

T1 sequence (Q923Y8 whole entry): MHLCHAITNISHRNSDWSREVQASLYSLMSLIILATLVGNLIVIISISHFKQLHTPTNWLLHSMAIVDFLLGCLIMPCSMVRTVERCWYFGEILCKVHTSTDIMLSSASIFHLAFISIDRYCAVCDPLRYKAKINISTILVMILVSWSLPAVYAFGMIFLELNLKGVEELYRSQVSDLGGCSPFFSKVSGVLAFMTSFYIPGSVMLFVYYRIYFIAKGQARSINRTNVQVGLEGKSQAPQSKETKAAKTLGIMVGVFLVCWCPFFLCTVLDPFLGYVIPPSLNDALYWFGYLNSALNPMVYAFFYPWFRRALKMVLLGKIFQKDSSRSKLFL

Ki [µM]	SMILES
0.0289	c1ccc2c(c1)CCN2Cc1ncc[nH]1 [Example 1, 1-(1H-Imidazol-2-ylmethyl)-2,3-dihydro-1H-indole]
0.0435	CCc1cccc2c1N(Cc1ncc[nH]1)CC2 [Example 15, 7-Ethyl-1-(1H-imidazol-2-ylmethyl)-2,3-dihydro-1H-indole]
0.118	COc1cccc2c1N(Cc1ncc[nH]1)CC2 [Example 20, 1-(1H-Imidazol-2-ylmethyl)-7-methoxy-2,3-dihydro-1H-indole]
0.115	COc1cccc2c1CCN2Cc1ncc[nH]1 [Example 23, 1-(1H-Imidazol-2-ylmethyl)-4-methoxy-2,3-dihydro-1H-indole]
0.173	Cc1cccc2c1N(Cc1ncc[nH]1)CC2 [Example 32, 1-(1H-Imidazol-2-ylmethyl)-7-methyl-2,3-dihydro-1H-indole]

The next lines start with the molecule.

SMILES	Ki [µM]
C[C@@H]1c2ccccc2N(Cc2ncc[nH]2)[C@@H]1C (racemic) [Example 14, (2RS,3RS)-1-(1H-Imidazol-2-ylmethyl)-2,3-dimethyl-2,3-dihydro-1H-indole]	0.196
Brc1ccc2c(c1)CCN2Cc1ncc[nH]1 [Example 4, 5-Bromo-1-(1H-imidazol-2-ylmethyl)-2,3-dihydro-1H-indole]	0.055
Clc1ccc2c(c1)N(Cc1ncc[nH]1)CC2 [Example 16, 6-Chloro-1-(1H-imidazol-2-ylmethyl)-2,3-dihydro-1H-indole]	0.035
Clc1cccc2c1CCN2Cc1ncc[nH]1 [Example 17, 4-Chloro-1-(1H-imidazol-2-ylmethyl)-2,3-dihydro-1H-indole]	0.0362
Cc1cccc2c1CCN2Cc1ncc[nH]1 [Example 33, 1-(1H-Imidazol-2-ylmethyl)-4-methyl-2,3-dihydro-1H-indole]	0.125
c1ccc(Oc2cccc3c2CCCN3Cc2ncc[nH]2)cc1 [Example 42, 1-(1H-Imidazol-2-ylmethyl)-5-phenoxy-1,2,3,4-tetrahydro-quinoline]	0.0046

Same assay, conditions: mouse TAAR1; radioligand [3H]-rac-2-(1,2,3,4-tetrahydro-1-naphthyl)-2-imidazoline at 60 nM; 4° C., 30 minutes; read-out: Ki (μM) mouse

Ki [µM]	SMILES
0.0557	Clc1cccc2c1N(Cc1ncc[nH]1)CC2 [Example 24, 7-Chloro-1-(1H-imidazol-2-ylmethyl)-2,3-dihydro-1H-indole]
0.0951	Brc1ccc2c(c1)CCCN2Cc1ncc[nH]1 [Example 25, 6-Bromo-1-(H-imidazol-2-ylmethyl)-1,2,3,4-tetrahydro-quinoline]
0.129	Cc1ccc2c(c1)N(Cc1ncc[nH]1)CC2 [Example 26, 1-(1H-Imidazol-2-ylmethyl)-6-methyl-2,3-dihydro-1H-indole]
0.0513	c1ccc(COc2cccc3c2CCCN3Cc2ncc[nH]2)cc1 [Example 38, 5-Benzyloxy-1-(1H-imidazol-2-ylmethyl)-1,2,3,4-tetrahydro-quinoline]

Same assay, conditions: radioligand binding to TAAR1 membranes; species not stated; read-out: calculated Kd value of the radioligand

SMILES	Kd [nM]
c1ccc2c(c1)CCCC2C1=NCCN1 (racemic) [[^3H]-rac-2-(1,2,3,4-tetrahydro-1-naphthyl)-2-imidazoline, reference compound]	60
